Measurements published in patent publication US20130150354A1, “NEW SELECTIVE CCR2 ANTAGONISTS” (BOEHRINGER INGELHEIM INTERNATIONAL GMBH, priority 2011, published 2013).

Key:
CCR2 = target: T1, CCR2 (Homo sapiens, UniProt P41597); assay: CCR2 receptor membrane binding assay (THP-1 membranes, 125I-MCP-1, SPA beads); conditions: THP-1 cell membranes, 125I-MCP-1, 8 h; read-out: hKi [nM] (CCR2)
T1 construct: Membranes were prepared from THP-1 cells; endogenous in cells; host or cells: THP-1 (human acute monocytic leukaemia cells), membrane preparation
T1 sequence (P41597 1-360 isoform P41597-2): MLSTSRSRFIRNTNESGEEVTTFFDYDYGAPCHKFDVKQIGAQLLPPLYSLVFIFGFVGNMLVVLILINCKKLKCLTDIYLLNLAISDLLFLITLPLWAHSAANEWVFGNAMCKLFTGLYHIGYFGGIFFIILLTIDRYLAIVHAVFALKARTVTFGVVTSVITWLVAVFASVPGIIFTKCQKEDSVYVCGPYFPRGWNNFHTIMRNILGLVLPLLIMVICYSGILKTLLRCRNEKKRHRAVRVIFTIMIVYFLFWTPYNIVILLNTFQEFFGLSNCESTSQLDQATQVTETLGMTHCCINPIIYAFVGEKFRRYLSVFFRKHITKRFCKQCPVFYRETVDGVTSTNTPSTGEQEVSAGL
Method: The above exemplary substances have been tested for binding to CCR2 using a binding assay as outlined herein below:
THP-1 cells (human acute monocytic leukaemia cells) were cultured under standardized conditions at 37° C. and 5% CO2 in a humidified incubator. THP-1 cells were cultivated in RPMI 1640 medium (Gibco 21875) containing 1% MEM-NEAA (Gibso 11140) 2 mM L-glutamine, 1.5 g/L sodium bicarbonate, 4.5 g/L glucose, 10 mM HEPES and 1.0 mM sodium pyruvate, 90%; 10% fetal calf serum (FCS Gibco 10500-064).
Membranes were prepared from THP-1 cells. THP-1 cells were centrifuged at 300×g at 4° C. for 10 min. The cell pellet was resuspendet in Phosphate Buffer Saline (PBS, including 10 μM Pefabloc and a protease inhibitor mix ‘complete’, Boehringer Mannheim (1 tablet/50 ml)), to a concentration of […]. The membrane preparation was performed by disrupting the cells by nitrogen […] (at 50 bar, for 1 h) in a “Nitrogen Bombe” (Parr Instrument). Cell debris was removed by centrifugation (800×g at 4° C., 1 min). The supernatant was centrifuged at 80000×g, 4° C. for 30 min to sediment the cell membranes. Usually 50 mg of protein (Bradford assay) were yielded from 1×10E9 cells. The membranes were resuspendet in 25 mM HEPES, 25 mM MgCl2, 1 mM CaCl2, 10% Glycerine for storage in aliquots at −80° C. in 25 mM HEPES, 25 mM MgCl2, 1 mM CaCl2, 10% Glycerine and stored at −80° C.
Perkin Elmer NEX 332 Jod^125 MCP-1, Stock: 2200 Ci/mmol solved in 2000 μl assay buffer, stored at −20° C. THP-1 membrane were adjusted with 25 mM HEPES, pH 7.2; 5 mM MgCl2; 0.5 mM CaCl2; 0.2% BSA assay buffer to a concentration of 2.5 μg/15 μl. Amersham Biosciences PVT-WGA Beads (RPNQ0001) were adjusted with assay buffer to a concentration of 0.24 mg/30 μl. For preparation of the membrane-bead-suspension membranes and beads were incubated for 30 min at RT under rotation (60 rpm) with a ratio of 1:2. Test compounds dissolved in 100% DMSO to a concentration of 10 mM and are further diluted with 100% DMSO to 1 mM. All additional compound dilutions were obtained with assay buffer, final 1% DMSO. Compounds, membrane-bead-suspension and [^125]MCP-1 (ca. 25000 cpm/10 μl) were incubated. Bound radioactivity was determined by scintillation counter after 8 h. Determination of affinity of test compounds (dissociation constant hKi) is calculated by iterative fitting of experimental data using the “easy sys” program, which is based on law of mass action (Schittkowski K. (1994), Numerische Mathematik, Vol. 68, 129-142).

human CCR5 = target: T2, human CCR5 (Homo sapiens, UniProt P51681); assay: CCR5 receptor membrane binding assay (CHO (Gα16) human CCR5 membranes, [125I]RANTES, SPA beads); conditions: 6 h, read-out: hKi [nM] (CCR5)
T2 construct: expressed in transfected cells; host or cells: CHO cells co-expressing Gα16, grown under puromycin and zeocin selection; membrane preparation
Method: The above exemplary substances have been tested for binding to CCR5 using a binding assay as outlined herein below:
CHO, (Gα16) human CCR5 cells were cultured under standardized conditions at 37° C. and 5% CO2 in a humidified incubator. CHO (Gα16) human CCR5 cells were cultivated in Ham's F12 (Invitrogen; #31765068) supplemented with 10 µg/ml Puromycin (Invitrogen; #A11139-03), 200 µg/ml Zeocin (Invitrogen; #45-0003) and 10% FCS (Gibco; #10500-064).
Membranes were prepared from CHO (Gα16) human CCR5 cells. Cells were cultured on […] plates (Nunc; #166508) 2-3 days before membrane preparation (usually 80-100 plates to obtain 80 mg protein).
Cells were scraped off the plates with a big scraper and washed with 2×5 ml ice cold Phosphate Buffer Saline (PBS; Invitrogen; #14040-174). Cell suspension was collected in a glass bottle (on ice). Cell suspension was harvested at 1400 rpm and 4° C. for 10 min and washed in PBS. Cell pellet was resuspended in 40 ml PBS with protease inhibitor mix ‘complete’ (Roche; #11873580001; 1 tablet/50 ml).
For gentle cell disruption the membrane preparation was performed by using a homogenizer (potter). Cells were homogenized for 5-10 min.
Membranes were centrifuged at 1000 rpm and 4° C. for 5 min. Supernatant (=membrane) was harvested in a new falcon tube and remaining cell pellet homogenized again for 5-10 min with PBS with protease inhibitor mix and centrifuged. Collected supernatant was centrifuged at 40000 rpm and 4° C. for 30 min to sediment the cell membranes.
The membranes were resuspended in 25 mM HEPES, 25 mM MgCl2, 1 mM CaCl2, 10% Glycerine for storage in aliquots at −80° C. Membranes were diluted to a concentration of 5 mg/ml (Bradford Assay).
[^125I]RANTES, Stock: 1825 Ci/mmol, 25 μCi (Bio Trend #A3-AI-676) was solved in 1000 μl assay buffer (100 mM NaCl; 10 mM MgCl2; 50 mM Tris-HCl; 1 mM EDTA; 0.1% BSA, pH 7.6), stored at −20° C.
CHO (Gα16) human CCR5 membrane were solved on ice and adjusted with assay buffer to a concentration of 2.5 μg/15 μl.
Amersham Biosciences PVT-WGA Beads (GE Healthcare; #RPNQ0001) were adjusted with assay buffer to a concentration of 8 mg/ml. For preparation of the membrane-bead-suspension, membranes and beads were incubated for 30 min at RT under rotation with a ratio of 1:2.
Test compounds dissolved in 100% DMSO to a concentration of 10 mM and are further diluted with 100% DMSO to 1 mM. All additional compound dilutions were obtained with assay buffer, final 1% DMSO. 7 μl compound dilution, 45 μl membrane-bead-suspension and 10 μl [^125I]RANTES (ca. 20000 cpm/10 μl) were incubated at RT. Bound radioactivity was determined by scintillation counter after 6 h. Determination of affinity of test compounds (dissociation constant Ki) is calculated by iterative fitting of experimental data using the “easy sys” program, which is based on law of mass action (Schittkowski K. (1994), Numerische Mathematik, Vol. 68, 129-142).

T2 sequence (P51681 whole entry): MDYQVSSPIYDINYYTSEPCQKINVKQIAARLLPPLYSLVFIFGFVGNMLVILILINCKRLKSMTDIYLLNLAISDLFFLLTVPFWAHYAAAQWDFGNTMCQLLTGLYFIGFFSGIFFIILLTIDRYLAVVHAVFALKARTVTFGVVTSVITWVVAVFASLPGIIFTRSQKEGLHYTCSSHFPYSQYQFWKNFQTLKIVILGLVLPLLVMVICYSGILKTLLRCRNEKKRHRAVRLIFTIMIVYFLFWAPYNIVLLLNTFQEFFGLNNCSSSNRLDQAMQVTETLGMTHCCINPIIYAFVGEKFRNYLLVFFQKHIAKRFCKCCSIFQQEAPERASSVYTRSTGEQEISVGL

Compound | Ki (CCR2) [nM] | Ki (human CCR5) [nM]
Cc1c(NC[C@H]2CCC[C@@H](c3ccc(OC(F)(F)F)cc3)O2)ncnc1C(=O)N1CCC(N2CCO[C@H]3COCC[C@H]32)CC1 (single isomer, unassigned) [Example 33] | 1 | 48
Cc1c(NC[C@H]2CCC[C@@H](c3ccc(OC(F)(F)F)cc3)O2)ncnc1C(=O)N1CCC(N2CCO[C@@H]3COCC[C@H]32)CC1 (single isomer, unassigned) [Example 34] | 26 | 1140
Cc1c(Nc2ccc(Cl)c(Cl)c2)nc(C2CC2)nc1C(=O)N1CCC(N2CCO[C@H]3COCC[C@H]32)CC1 (single isomer, unassigned) [Example 35a] | 1 | 160
Cc1c(Nc2ccc(Cl)c(Cl)c2)nc(C2CC2)nc1C(=O)N1CCC(N2CCO[C@@H]3COCC[C@@H]32)CC1 (single isomer, unassigned) [Example 35b] | 9 | 1350
COc1nc(Nc2cccc(C(F)(F)F)c2)c(C)c(C(=O)N2CCC(N3CCO[C@H]4COCC[C@H]43)CC2)n1 (single isomer, unassigned) [Example 36a] | 7 | 1550
COc1nc(Nc2cccc(C(F)(F)F)c2)c(C)c(C(=O)N2CCC(N3CCO[C@@H]4COCC[C@@H]43)CC2)n1 (single isomer, unassigned) [Example 36b] | 42 | 2100
COc1nc(Nc2ccc(Cl)c(Cl)c2)c(C)c(C(=O)N2CCC(N3CCO[C@H]4COCC[C@H]43)CC2)n1 (single isomer, unassigned) [Example 37a] | 1 | 300
COc1nc(Nc2ccc(Cl)c(Cl)c2)c(C)c(C(=O)N2CCC(N3CCO[C@@H]4COCC[C@@H]43)CC2)n1 (single isomer, unassigned) [Example 37b] | 6 | 1000
Cc1nc(Nc2ccc(Cl)c(Cl)c2)c(C)c(C(=O)N2CCC(N3CCO[C@H]4COCC[C@H]43)CC2)n1 (single isomer, unassigned) [Example 38a] | 3 | 260
Cc1c(Nc2cccc(C(F)(F)F)c2)nc(C2CC2)nc1C(=O)N1CCC(N2CCO[C@H]3COCC[C@H]32)CC1 (single isomer, unassigned) [Example 39a] | 1 | 460
Cc1c(Nc2cccc(C(F)(F)F)c2)nc(C2CC2)nc1C(=O)N1CCC(N2CCO[C@@H]3COCC[C@@H]32)CC1 (single isomer, unassigned) [Example 39b] | 31 | 
Cc1nc(Nc2cccc(C(F)(F)F)c2)c(C)c(C(=O)N2CCC(N3CCO[C@H]4COCC[C@H]43)CC2)n1 (single isomer, unassigned) [Example 40b] | 9 | 640
Cc1c(C(=O)N2CCC(N3CCO[C@@H]4COCC[C@@H]43)CC2)ncnc1N1COc2ccc(C(F)(F)F)cc2C1 (single isomer, unassigned) [Example 41] | 2 | 460
Cc1c(NC[C@H]2CCC[C@@H](c3ccc(C(F)(F)F)cc3)O2)ncnc1C(=O)N1CCC(N2CCO[C@@H]3COCC[C@@H]32)CC1 [Example 1] | 15 | 1770
Cc1c(NC[C@H]2CCC[C@@H](c3ccc(C(F)(F)F)cc3)O2)ncnc1C(=O)N1CCC(N2CCO[C@H]3COCC[C@H]32)CC1 [Example 2] | 0.5 | 460
Cc1c(C(=O)N2CCC(N3CCO[C@H]4COCC[C@H]43)CC2)ncnc1N1CCc2ccc(C(F)(F)F)cc2C1 [Example 3] | 4 | 2090
Cc1c(Nc2ccc(Cl)c(Cl)c2)ncnc1C(=O)N1CCC(N2CCO[C@H]3COCC[C@H]32)CC1 [Example 4] | 4 | 540
Cc1c(Nc2cccc(C(F)(F)F)c2)ncnc1C(=O)N1CCC(N2CCO[C@H]3COCC[C@H]32)CC1 [Example 5] | 9 | 1460
Cc1ccc([C@@H]2CCC[C@H](CNc3ncnc(C(=O)N4CCC(N5C[C@H]6C[C@@H](N(C)S(C)(=O)=O)C[C@H]6C5)CC4)c3C)O2)cc1 [Example 6] | 0.3 | 38
Cc1c(C(=O)N2CCC(N3C[C@H]4C[C@@H](N(C)S(C)(=O)=O)C[C@H]4C3)CC2)ncnc1N1CCc2ccc(C(F)(F)F)cc2C1 [Example 7] | 0.6 | 420
Cc1c(NC[C@H]2CCC[C@@H](c3ccc(OC(F)(F)F)cc3)O2)ncnc1C(=O)N1CCC(N2C[C@H]3C[C@@H](N(C)S(C)(=O)=O)C[C@H]3C2)CC1 [Example 8] | 0.1 | 9
Cc1c(NC[C@H]2CCC[C@@H](c3ccc(C(F)(F)F)cc3)O2)ncnc1C(=O)N1CCC(N2C[C@H]3C[C@@H](N(C)S(C)(=O)=O)C[C@H]3C2)CC1 [Example 9] | 0.2 | 21
Cc1c(Nc2ccc(Cl)c(Cl)c2)ncnc1C(=O)N1CCC(N2C[C@H]3C[C@@H](N(C)S(C)(=O)=O)C[C@H]3C2)CC1 [Example 10] | 0.6 | 92
Cc1c(NC[C@H]2CCC[C@@H](c3ccccc3)C2)ncnc1C(=O)N1CCC(N2C[C@H]3C[C@@H](N(C)S(C)(=O)=O)C[C@H]3C2)CC1 [Example 11] | 0.8 | 15
